In brackets after ≈: the same amount, converted by molar mass. Starred links: 1 amine or outer side, 2 acyl side, 3 side chain; linkers in the order of their positions; H or OH if unused. Non-standard residues stand in square brackets, D forms with d. Residues, ends and D or L forms follow the SMILES beside them. Trp(4-OMe) = COc1cccc2[nH]cc(C[C@H](N)C(=O)O)c12; X1 = O=C(c1csc([C@@H](CO)N[*:1])n1)[*:2]; Dha = C=C(N)C(=O)O; Sar = CNCC(=O)O
Columns and labels:
[1] = target: T1, erythrocyte-derived 20S proteasome, chymotrypsin-like activity (Homo sapiens, UniProt P20618+P28074); test: 20S-Proteasome-Test (manual), chymotrypsin-like substrate; assay type: biochemical
T1 construct: using erythrocyte-derived 20S proteasome; purchased Biomol International PW8720; host or cells: human erythrocytes
Method: (§1) Proteasome assays with purified 20S proteasome were performed as previously described (Lightcap, E. S. et al. Proteasome inhibition measurements: clinical application. Clin Chem 46, 673-83 (2000)) using erythrocyte-derived 20S proteasome (Biomol International,#LP PW8720) and fluorometric substrates Succ-LLVY-AMC, BZ-VGR-AMC and Z-Lle-AMC (Biomol International, LP PW9905) as probes according to the manufacturers instructions. Proteasome extraction from cells and tumor sections was done as previously described (Crawford, L. J. et al. Comparative selectivity and specificity of the proteasome inhibitors BzLLLCOCHO, PS-341, and MG-132. Cancer Res 66, 6379-86 (2006)). Briefly cells (MEF or MCF-7) or tissue sample homogenate (tumor sections) were re-suspended in 1 mL ATP/DTT lysis buffer (10 mmol/L Tris-HCl (pH7.8), 5 mmol/L ATP, 0.5 mmol/L DTT, 5 mmol/L MgCl2), and incubated on ice for 10 minutes, followed by sonication for 15 seconds. The lysates were centrifuged at 400×g for 10 min at 4° C., and the resulting supernatant containing proteasomes was stable at −80° C. with the addition of 20% glycerol for at least 1 month. Protein concentration of the samples was measured using a coomassie protein assay (Pierce, Rockford, Ill.).
(§2) Proteasome assays with purified 20S proteasome were performed as previously described (Lightcap et al., 2000) using erythrocyte-derived 20S proteasome (Biomol International,#LP PW8720) and fluorometric substrates Succ-LLVY-AMC, BZ-VGR-AMC and Z-Lle-AMC (Biomol International, LP PW9905). Proteasome extraction from cells and tumor sections was done as previously described (Crawford et al., 2006). For proteasome extraction from whole blood, frozen whole blood cell pellets were thawed and lysed in 2-3 pellet volumes cold lysis buffer (5 mM EDTA, pH 8.0). […] The rate of cleavage of fluorogenic peptide substrates was determined by monitoring the fluorescence of released aminomethylcoumarin using a Victor 1420 Multilabel counter (Wallac) at an excitation wavelength of 395 nm and emission wavelength of 460 nm over a period of 60 min. […]

[2] = target: T2, erythrocyte-derived 20S proteasome, trypsin-like activity (Homo sapiens, UniProt P49720+Q99436); test: 20S-Proteasome-Test (manual), trypsin-like substrate; assay type: biochemical
T2 construct: using erythrocyte-derived 20S proteasome; purchased Biomol International PW8720; host or cells: human erythrocytes
Method: as §1, §2

[3] = target: T3, erythrocyte-derived 20S proteasome, caspase-like activity (Homo sapiens, UniProt P28072+Q99436); test: 20S-Proteasome-Test (manual), caspase-like substrate; assay type: biochemical
T3 construct: using erythrocyte-derived 20S proteasome; purchased Biomol International PW8720; host or cells: human erythrocytes
Method: as §1, §2

20S proteasome = system: T4, 20S proteasome; test: Proteasome-assay, overall comparison in words (all three subunits); assay type: biochemical, human; details: compared with argyrin F
T4 construct: using erythrocyte-derived 20S proteasome; purchased Biomol International PW8720; host or cells: human erythrocytes
Method: as §1
Proteasome assays with purified 20S proteasome were performed as previously described (Lightcap et al., 2000) using erythrocyte-derived 20S proteasome (Biomol International,#LP PW8720) and fluorometric substrates Succ-LLVY-AMC, BZ-VGR-AMC and Z-Lle-AMC (Biomol International, LP PW9905). Proteasome extraction from cells and tumor sections was done as previously described (Crawford et al., 2006). For proteasome extraction from whole blood, frozen whole blood cell pellets were thawed and lysed in 2-3 pellet volumes cold lysis buffer (5 mM EDTA, pH 8.0). Lysates were spun down at 4° C. and the supernatant was transferred to a fresh tube. 5 μl was taken for the determination of protein concentration using a coomassie protein assay (Pierce, Rockford, Ill.). Proteasome assays using proteasome purified from cells or tissues were carried out in a 100 μL reaction volume containing 20 μg proteasome extract, 50 mmol/L EDTA and 60 μmol/L fluorogenic substrate (chymotrypsin-like(CT-L), trypsin-like(T-L) or caspase-like (C-L)) in ATP/DTT lysis buffer at 37° C. The assay buffer was supplemented with a final concentration of 0.05% SDS for the evalution of the chymotrypsin-like activity and caspase-like activity. The rate of cleavage of fluorogenic peptide substrates was determined by monitoring the fluorescence of released aminomethylcoumarin using a Victor 1420 Multilabel counter (Wallac) at an excitation wavelength of 395 nm and emission wavelength of 460 nm over a period of 60 min.

[4] = system: H15GFP-p27 clone (HeLa-cell line; cervix-carcinoma); test: GFP-fluorescence per FACS of p27-GFP clone H15GFP-p27; assay type: cell-based; details: GFP-fluorescence per FACS after 24 h incubation, 500 ng/ml
Source text: (§3) The following table summarizes the effects of […]-derivatives B and F on two cancer cell lines, H15 (cervix carcinoma) and SW-480 (colon cancer). In order to test the efficacy, a p27-GFP-clone was used. [table]

H15 (cervix carcinoma) = test: MIC (visual), serial dilution, H15 cells; assay type: cell-based; details: minimal concentration of a serial dilution exhibiting a visual effect
Source text: as §3

SW-480 (colon cancer) = test: MIC (visual), serial dilution, SW-480 cells; assay type: cell-based; details: minimal concentration of a serial dilution exhibiting a visual effect
Source text: as §3

[5] = system: SW-480 (colon cancer cell line); test: MTT-test, proliferation of SW-480; assay type: cell-based
Method: MTT assays were done as previously described (Sasse, F. et al. Argyrins, immunosuppressive cyclic peptides from myxobacteria. I. Production, isolation, physico-chemical and biological properties. J Antibiot (Tokyo) 55, 543-51 (2002)). TUNEL staining of tissue sections was performed on 10 micrometer sections which were deparafinised and treated as recommended by the manufacturer. (In Situ Cell Death Detection Kit, Fluorescein; ROCHE, Cat #11 684 795 910). Flow cytometric analysis of cultured cells was done using a Becton Dickinson fluorescence cytometer as previously described (Malek, N.P. et al. A mouse knock-in model exposes sequential proteolytic pathways that regulate p27^Kip1 in G1 and S phase. Nature 413, 323-7 (2001)). Analysis of the distribution of cells in the cell cycle and the sub-G1 fraction was done using Cell Quest software. A histone-associated-DNA-fragments ELISA was used to determine the number of apoptotic cells according to manufacturers instructions (Roche #11 774425001).

Compound | rel. activ. in % after 20 min. ([1]; conc. in test 100 μmol/L) | rel. activ. in % after 20 min. ([2]; conc. in test 100 μmol/L) | rel. activ. in % after 20 min. ([3]; conc. in test 100 μmol/L) | inhibiting effect on the proteasome, compared in words (20S proteasome) | inhibiting effect on the proteasome, compared in words (20S proteasome; listed as argyrin Ala beta) | Mean of FSC-H (Log) H15 p27-GFP-clone [4] | MIC (visual) HIS (H15 (cervix carcinoma)) | MIC (visual) SW-480 (SW-480 (colon cancer)) | IC50 ([5]; Homo sapiens, SW480, half-maximal inhibition of proliferation, read-out: IC-50 SW-480) | rel. activ. in % after 20 min. ([1]; conc. in test 200 μmol/L) | rel. activ. in % after 20 min. ([2]; conc. in test 200 μmol/L) | rel. activ. in % after 20 min. ([3]; conc. in test 200 μmol/L) | inhibiting effect on the proteasome, compared in words (20S proteasome; listed as Argyrin Ala alpha) | IC-50 SW-480 ([5]; half-maximal inhibition of proliferation)
C=C1NC(=O)[C@@H](C)NC(=O)[C@H](C)NC(=O)[C@H](Cc2c[nH]c3cccc(OC)c23)NC(=O)[C@H](Cc2c[nH]c3ccccc23)NC(=O)c2csc(n2)[C@@H](CO)NC(=O)CN(C)C1=O [Argyrin ala beta] (cyclo(A[dA][Dha][Sar][X1]W[Trp(4-OMe)])) | 8% | 26% | 7% | higher activities than Argyrin F | stronger inhibiting effect on the proteasome than argyrin F | – | – | – | – | – | – | – | – | –
C=C1NC(=O)[C@@H](C)NC(=O)CNC(=O)[C@H](Cc2c[nH]c3cccc(OC)c23)NC(=O)[C@H](Cc2c[nH]c3ccccc23)NC(=O)c2csc(n2)[C@@H](CO)NC(=O)CN(C)C1=O [Argyrin F] (cyclo([Dha][Sar][X1]W[Trp(4-OMe)]G[dA])) | – | – | – | – | – | 11.24 | 0.5 µg/mL (≈ 0.595 µM) | 0.2 µg/mL (≈ 0.238 µM) | 0.05 µg/mL (≈ 0.0595 µM) | 15% | 32% | 17% | – | –
C=C1NC(=O)[C@@H](C)NC(=O)[C@@H](C)NC(=O)[C@H](Cc2c[nH]c3cccc(OC)c23)NC(=O)[C@H](Cc2c[nH]c3ccccc23)NC(=O)c2csc(n2)[C@@H](CO)NC(=O)CN(C)C1=O [Argyrin ala alpha] (cyclo([Dha][Sar][X1]W[Trp(4-OMe)][dA][dA])) | 17% | 72% | 11% | higher activities than Argyrin F | – | – | – | – | – | – | – | – | slightly less active | –
Argyrin B | – | – | – | – | – | 7.60 | 12 µg/mL | 12 µg/mL | – | – | – | – | – | Ca. 0.05 μg/ml
